Measured values reported in US6972319B1, “Pituitary adenylate cyclase activating peptide (PACAP)receptor 3 (R3) agonists and their pharmacological methods of use” (priority 1999, dated 2005).
No end group written: not given here.

Tests used:
PACAP-R3 = target: T1, PACAP-R3 (Homo sapiens, UniProt P41587); assay: Cyclic AMP SPA on CHO cells expressing PACAP R3; type: cell-based; design: expressed in transfected cells; host or cells: CHO cells (Geneticin selection); settings: for EC50: cAMP SPA, CHO cells transfected with PACAP-R3, concentration at which 50% of maximum PACAP27 activity is achieved, NA = no detectable activities, read-out: R3 EC50; for R3 Selectivity: ratio of EC50 at R2 versus EC50 at R3
T1 sequence (P41587 24-438): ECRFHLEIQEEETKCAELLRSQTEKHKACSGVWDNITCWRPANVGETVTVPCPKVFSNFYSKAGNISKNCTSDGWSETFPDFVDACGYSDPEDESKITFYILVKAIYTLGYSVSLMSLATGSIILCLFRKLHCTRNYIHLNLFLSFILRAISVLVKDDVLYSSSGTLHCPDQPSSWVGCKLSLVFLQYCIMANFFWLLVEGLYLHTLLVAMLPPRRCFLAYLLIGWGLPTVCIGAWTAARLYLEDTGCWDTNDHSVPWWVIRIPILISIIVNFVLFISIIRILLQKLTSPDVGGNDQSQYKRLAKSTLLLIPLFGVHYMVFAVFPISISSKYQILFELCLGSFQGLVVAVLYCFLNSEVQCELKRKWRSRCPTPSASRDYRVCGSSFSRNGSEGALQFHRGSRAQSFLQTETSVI
How it was run: (§1)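 cAMP SPA readout; CHO stable lines, 24 h culture before use. Peptide treatment 15 min, 37 C, buffer with IBMX 100 uM plus trypsin inhibitor and bacitracin. EC50 = conc. reaching half of max PACAP27 response; R3 selectivity = EC50(R2)/EC50(R3).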

PACAP-R2 = target: T2, PACAP-R2 (Homo sapiens, UniProt P32241); assay: Cyclic AMP SPA on CHO cells transfected with PACAP-R2; type: cell-based; settings: cAMP SPA, concentration at which 50% of maximum PACAP27 activity is achieved, NA = no detectable activities, read-out: R2 EC50
T2 construct: expressed in transfected cells; host or cells: CHO cells
T2 sequence (P32241 31-457): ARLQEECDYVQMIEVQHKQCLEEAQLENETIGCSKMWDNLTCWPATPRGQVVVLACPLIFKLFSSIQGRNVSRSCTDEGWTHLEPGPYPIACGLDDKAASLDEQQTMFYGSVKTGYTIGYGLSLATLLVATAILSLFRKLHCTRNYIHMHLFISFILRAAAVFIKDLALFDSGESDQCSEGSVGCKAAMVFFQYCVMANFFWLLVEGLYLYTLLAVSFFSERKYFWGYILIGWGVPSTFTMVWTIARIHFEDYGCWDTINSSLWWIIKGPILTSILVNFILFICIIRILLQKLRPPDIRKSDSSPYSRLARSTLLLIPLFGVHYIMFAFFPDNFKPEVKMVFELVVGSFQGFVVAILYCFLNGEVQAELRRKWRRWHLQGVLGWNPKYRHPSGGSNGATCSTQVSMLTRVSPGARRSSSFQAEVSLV
How it was run: as §1

Row | Substance | EC50 (PACAP-R3) | R3 Selectivity (PACAP-R3) | EC50 (PACAP-R2)
1 | HSDAVFTDNYTRLRKQMAAKKYLNSIKN [Peptide R3P49] | 0.27 nM | 30 | 8 nM
2 | HSDAVFTDNYTRLRKQMAAKKYLNSIKNSR [Peptide R3P148] | 0.3 nM | 100 | 30 nM
3 | HSDAVFTDNYTRLRKQMAAKKYLNSIANKR [Peptide R3P116] | 1 nM | 20 | 20 nM
4 | HSDAVFTDNYTRLRKQMAAKKYLNSIKNKV [Peptide R3P169] | 0.2 nM | 300 | 60 nM
5 | HSDAVFTDNYTRLRKQMAAKKYLNSIKNKR [Peptide R3P65] | 0.6 nM | 130 | 80 nM
6 | HSDAVFTDNYTRLRKQLAAKKYLNDILNGGT [Peptide R3P27] | 0.8 nM | 8 | 6.4 nM
7 | HSDGIFTDSYSRYRKQKAVKKYLAAVL-NH2 [PAC17] | 0.15 nM | 1.6 | 0.25 nM
8 | HSDAVFTDNYTRLRKQMAAKKYLNSIKNKF [Peptide R3P157] | 0.3 nM | 170 | 50 nM
9 | HSDAVFTDNYTRLRKQLAAKKYLNDIKKGG [Peptide R3P31] | 0.3 nM | >300 | > 100 nM
10 | HSDAVFTDNYTRLRKQMAAKKYLNSIENKR [Peptide R3P119] | 0.5 nM | 30 | 15 nM
11 | HSDAVFTDNYTRLRKQMARKKYLNSIKNKR [Peptide R3P110] | 0.5 nM | 200 | 100 nM
12 | HSDAVFTDNYTRLRKQLAAKKYLNDILKGGT [Peptide R3P23] | 0.43 nM | 23 | 10 nM
13 | HSDGIFTDSYSRYRKQMAVKKYLAAVK-NH2 [PAC27] | 1.1 nM | 1.4 | 1.5 nM
14 | HSDAVFTDNYTRLRKQMAVKKYLNSIKKKR [Peptide R3P57] | 0.23 nM | 190 | 42 nM
15 | HSDAVFTDNYTRLRKQMAAKKYLNSIKNDR [Peptide R3P136] | 0.3 nM | 70 | 20 nM
16 | Ac-HSDAVFTENYTKLRKQLAAKKYLNDLKKGGT-NH2 [Peptide R3P1] | 2 nM | >50 | > 100 nM
17 | HSDAVFTDNYTRLRKQMAVKKYLNDILN [Peptide R3P48] | 0.13 nM | 8 | 1 nM
18 | HSDAVFTDNYTRLRKQMAAKKYLNSIRNRI [rR3P189] | 0.04 nM | 30 | 1.3 nM
19 | HSDAVFTDNYTRLRKQMAAKKYLNSIKNRI [rR3P174] | 0.2 nM | 90 | 18 nM
20 | HSDAVFTDNYTRLRKQMAEKKYLNSIKNKR [Peptide R3P99] | 1 nM | 40 | 40 nM
21 | H-HSDAVFTDNYTRLRKQMAAKKYLNSIQNKR [Peptide R3P127] | 0.5 nM | 600 | 300 nM
22 | HSDAVFTDNYTRLRKQIAAKKYLQTIKK [Peptide R3P61] | 0.8 nM | 140 | 110 nM

Row | Substance | EC50 (PACAP-R3) | R3 Selectivity (PACAP-R3) | EC50 (PACAP-R2)
23 | HSDAVFTDNYTRLRKQMAAKKYLNSIFNKR [Peptide R3P120] | 0.2 nM | 50 | 10 nM
24 | HSDAVFTDNYTRLRKQVAVKKYLQSILKK [Peptide R3P89] | 0.06 nM | 15 | 0.9 nM
25 | HSDAVFTDNYTRLRKQMAAKKYLNSINNKR [Peptide R3P125] | 2 nM | 30 | 60 nM
26 | HSDGIFTDSYKRYRKQMAVKKYLAAVL-NH2 [PAC11] | 140 nM | 0.1 | 10 nM
27 | HSDAVFTDNYTRLRKQMAAKKYLNSILN [Peptide R3P47] | 0.12 nM | 6 | 0.7 nM
28 | HSDAVFTDNYTRLRKQMAAKKYLNSIKNKT [Peptide R3P168] | 0.2 nM | 300 | 60 nM
29 | HSDGIFTDSYSRKRKQMAVKKYLAAVL-NH2 [PAC13] | 0.5 nM | 6 | 3 nM
30 | HSDAVFTENYTRLRKQMAVKKYLNSLKK-NH2 [Peptide R3P7] | 4 nM | 0.5 | 2 nM
31 | H-HSDAVFTDNYTRLRKQMAGKKYLNSIRNRI [rR3P190] | 2.2 nM | 100 | 220 nM
32 | HSDGIFTDSYSRYRKQMAVKEYLAAVL-NH2 [PAC21] | 0.24 nM | 10 | 2.5 nM
33 | HSDAVFTDQYTRLRKQMAAKKYLNSIKNKRY [Peptide R3P71] | 0.09 nM | 660 | 56 nM
34 | H-HSDGIFTDSYSRYRKQMAVKKYKAAVL-NH2 [PAC23] | 13 nM | 13 | 170 nM
35 | HSDAVFTDNYTRLRKQVAAKKYLQSILKK [Peptide R3P85] | 0.18 nM | 30 | 5 nM
36 | HSDAVFTDNYTRLRKQMAKKKYLNSIPNRI [rR3P181] | 5.1 nM | 50 | 280 nM
37 | HSDAVFTDNYTRLRKQMAAKKYLNSIKNKP [Peptide R3P165] | 0.5 nM | 300 | 150 nM
38 | H-HSDGIFTESYSRYRKQMAVKKYLAALKKKRYKQRVKNK [Peptide R3P6] | 80 nM | 3 | 220 nM
39 | HSDAVFTDNYTRLRKQMAAKKYLNSIKNLR [Peptide R3P142] | 0.2 nM | 30 | 6 nM
40 | HSDAVFTDNYTRLRKQLAAKKYLNSIKKGGT [Peptide R3P22] | 1.6 nM | 24 | 38 nM
41 | HSDAVFTDNYTRLRKQMAAHKYLNSIKNKRY [Peptide R3P73] | 0.3 nM | 170 | 50 nM
42 | HSDAVFTDNYTRLRKQMAAKKYLNSIKNQR [Peptide R3P146] | 0.3 nM | 100 | 30 nM
43 | HSDAVFTDNYTRLRKQMAAKKYLNSIPNKR [Peptide R3P126] | 1 nM | 200 | 200 nM
44 | HSDAVFTDNYTRLRKQMAAKKYLNSIKNNR [Peptide R3P144] | 3 nM | 100 | 300 nM
